Laboratory results taken from patent US6727237B2, “Inhibitors of bacterial NAD synthetase” (priority 1998, dated 2004).
Where two headings read alike, the source gives them in different places.

Target: T1, bacterial NAD synthetase enzyme (Bacillus subtilis, UniProt P08164)
T1 sequence (P08164 2-272 limits assumed): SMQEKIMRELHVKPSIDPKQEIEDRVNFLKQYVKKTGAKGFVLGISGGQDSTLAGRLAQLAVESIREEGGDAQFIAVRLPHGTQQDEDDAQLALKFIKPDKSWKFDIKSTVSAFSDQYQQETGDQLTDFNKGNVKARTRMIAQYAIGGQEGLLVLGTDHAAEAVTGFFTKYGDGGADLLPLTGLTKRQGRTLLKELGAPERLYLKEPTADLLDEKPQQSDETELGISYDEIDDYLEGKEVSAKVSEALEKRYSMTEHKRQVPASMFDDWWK
Experiment: biochemical
Assay type: biochemical

[1] = compound at 0.2 mM (Table 312B)
[2] = NAD synthetase enzyme inhibition, read-out: IC50 of Compounds

SMILES	IC50	% Inhibition [1]	also measured
C[N+](C)(C)c1ccc(CC(=O)OCCCCCCCn2ccc3ccccc32)cc1 [Compound 980]			% Inhibition (compound at 0.2 mM (Table 312A)): 74.86%
C[N+](C)(C)c1ccc(CC(=O)OCCCCCCCCn2ccc3ccccc32)cc1 [Compound 981]	60 µM		inhibition at 200 µM: 95.2%
C[N+](C)(C)c1ccc(CC(=O)OCCCCCCCCCn2ccc3ccccc32)cc1 [Compound 982]	60 µM		inhibition at 200 µM: 93.7%
COC(=O)c1cc2ccccc2n1CCCCCCOC(=O)Cc1ccc([N+](C)(C)C)cc1 [Compound 983]	25 µM		inhibition at 50 µM: 92.5%
COC(=O)c1cc2cc(OCc3ccccc3)ccc2n1CCCCCCCCOC(=O)Cc1ccc([N+](C)(C)C)cc1 [Compound 989]			% Inhibition (compound at 0.1 mM (Table 314)): 54.83%
O=C(OCCCCCCCCOc1ccc([N+](=O)[O-])cc1)c1cccnc1 [Compound 995]		27%	
COc1ccccc1OCCCCCCCCOC(=O)c1cccnc1 [Compound 1012]		2%	
O=C(OCCCCCCCCOc1ccc(C(=O)c2ccccc2)cc1)c1cccnc1 [Compound 1013]		29%	
NC(=O)c1ccc(OCCCCCCCCOC(=O)c2cccnc2)cc1 [Compound 1014]		14%	
CC(=O)c1cccc(OCCCCCCCCOC(=O)c2cccnc2)c1 [Compound 1015]		15%	
O=C(OCCCCCCCCOc1ccc(Oc2ccccc2)cc1)c1cccnc1 [Compound 1016]		29%	
O=C(OCCCCCCCCOc1ccc(N2C(=O)c3ccccc3C2=O)cc1)c1cccnc1 [Compound 1017]		23%	
O=C(OCCCCCCCCOc1cccc(N2CCOCC2)c1)c1cccnc1 [Compound 1018]		17%	
O=C(OCCCCCCCCOc1ccccc1N1CCCC1)c1cccnc1 [Compound 1019]		3%	
O=C(OCCCCCCCCOc1ccccc1N1CCOCC1)c1cccnc1 [Compound 1020]		8%	
CN(C)c1ccc(CC(=O)OCCCCCCCCOc2ccccc2[N+](=O)[O-])cc1 [Compound 1024]		45%	
CC(=O)N1CCN(c2ccc(OCCCCCCCCOC(=O)Cc3ccc(N(C)C)cc3)cc2)CC1 [Compound 1025]		15%	
CC(=O)Oc1cccc(OCCCCCCCCOC(=O)Cc2ccc(N(C)C)cc2)c1 [Compound 1027]		2%	
CN(C)c1ccc(CC(=O)OCCCCCCCCOc2ccccc2C(N)=O)cc1 [Compound 1031]	36.3 µM		inhibition at 200 µM: 23%
CN(C)c1ccc(CC(=O)OCCCCCCCCOc2ccc(C=CC(=O)c3ccccc3)cc2)cc1 [Compound 1034]		30%	
CN(C)c1ccc(CC(=O)OCCCCCCCCOc2cccc([N+](=O)[O-])c2)cc1 [Compound 1036]		6%	
CN(C)c1ccc(CC(=O)OCCCCCCCCOc2ccccc2C=CC(=O)c2ccccc2)cc1 [Compound 1038]		22%	
COc1ccccc1OCCCCCCCCOC(=O)Cc1ccc(N(C)C)cc1 [Compound 1039]		30%	

SMILES	IC50	% Inhibition [1]	also measured
CN(C)c1ccc(CC(=O)OCCCCCCCCOc2ccc(C(=O)c3ccccc3)cc2)cc1 [Compound 1040]		3%	
CN(C)c1ccc(CC(=O)OCCCCCCCCOc2cccc(N3CCOCC3)c2)cc1 [Compound 1045]		14%	
CN(C)c1ccc(CC(=O)OCCCCCCCCOc2ccccc2N2CCCC2)cc1 [Compound 1046]		2%	
CN(C)c1ccc(CC(=O)OCCCCCCCCOc2ccccc2N2CCOCC2)cc1 [Compound 1047]		45%	
CCCCc1oc2ccccc2c1C(=O)c1ccc(OCCCOC(=O)c2ccc[n+](C)c2)cc1 [Compound 1064]	37.5 µM		inhibition at 200 µM: 92%
C[n+]1cccc(C(=O)OCCCCCCCCOc2cccc([N+](=O)[O-])c2)c1 [Compound 1065]	37.5 µM		inhibition at 200 µM: 81%
C[n+]1cccc(C(=O)OCCCOc2ccc(C(=O)c3ccccc3)cc2)c1 [Compound 1068]	62.5 µM		inhibition at 200 µM: 92%
C[n+]1cccc(C(=O)OCCCOc2ccc(Oc3ccccc3)cc2)c1 [Compound 1070]	36.2 µM		inhibition at 200 µM: 82%
C[N+](C)(C)c1ccc(CC(=O)OCCCCCCCCOc2ccc([N+](=O)[O-])cc2)cc1 [Compound 1073]		78%	
C[N+](C)(C)c1ccc(CC(=O)OCCCCCCCCOc2ccccc2C(=O)Nc2ccccc2)cc1 [Compound 1074]	30 µM		inhibition at 200 µM: 91%
C[N+](C)(C)c1ccc(CC(=O)OCCCCCCCCOc2ccccc2[N+](=O)[O-])cc1 [Compound 1075]		79%	IC50 [2]: 65 µM
CC(=O)c1ccccc1OCCCCCCCCOC(=O)Cc1ccc([N+](C)(C)C)cc1 [Compound 1076]	135 µM		inhibition at 200 µM: 74%
COc1cccc(OCCCCCCCCOC(=O)Cc2ccc([N+](C)(C)C)cc2)c1 [Compound 1077]		73%	
CC(=O)c1ccc(OCCCCCCCCOC(=O)Cc2ccc([N+](C)(C)C)cc2)cc1 [Compound 1078]	123 µM		inhibition at 200 µM: 68%
C[N+](C)(C)c1ccc(CC(=O)OCCCCCCCCOc2cccc(OC(=O)c3ccccc3)c2)cc1 [Compound 1079]	36.2 µM		inhibition at 200 µM: 97%
C[N+](C)(C)c1ccc(CC(=O)OCCCCCCCCOc2ccccc2C(N)=O)cc1 [Compound 1080]	100 µM		inhibition at 200 µM: 83%
CC(=O)C=Cc1ccc(OCCCCCCCCOC(=O)Cc2ccc([N+](C)(C)C)cc2)cc1 [Compound 1081]	67.5 µM		inhibition at 200 µM: 84%
C[N+](C)(C)c1ccc(CC(=O)OCCCCCCCCOc2ccc(OC(=O)c3ccccc3)cc2)cc1 [Compound 1082]	50 µM		inhibition at 200 µM: 81%
CCCCc1oc2ccccc2c1C(=O)c1ccc(OCCCCCCCCOC(=O)Cc2ccc([N+](C)(C)C)cc2)cc1 [Compound 1084]		106%	IC50 [2]: 12.5 µM
C[N+](C)(C)c1ccc(CC(=O)OCCCCCCCCOc2cccc([N+](=O)[O-])c2)cc1 [Compound 1085]	138 µM		inhibition at 200 µM: 87%
C[N+](C)(C)c1ccc(CC(=O)OCCCCCCCCOc2ccccc2C=CC(=O)c2ccccc2)cc1 [Compound 1086]	27.5 µM		inhibition at 200 µM: 81%
COc1ccccc1OCCCCCCCCOC(=O)Cc1ccc([N+](C)(C)C)cc1 [Compound 1087]	40 µM		inhibition at 200 µM: 61%
C[N+](C)(C)c1ccc(CC(=O)OCCCCCCCCOc2ccc(C(=O)c3ccccc3)cc2)cc1 [Compound 1088]		100%	

SMILES	IC50	% Inhibition [1]	also measured
CC(=O)c1cccc(OCCCCCCCCOC(=O)Cc2ccc([N+](C)(C)C)cc2)c1 [Compound 1089]		56%	
C[N+](C)(C)c1ccc(CC(=O)OCCCCCCCCOc2ccc(Oc3ccccc3)cc2)cc1 [Compound 1090]	21.2 µM		inhibition at 200 µM: 96%
C[N+](C)(C)c1ccc(CC(=O)OCCCCCCCCOc2cccc(N3CCOCC3)c2)cc1 [Compound 1092]		60%	
C[N+](C)(C)c1ccc(CC(=O)OCCCCCCCCOc2ccccc2N2CCOCC2)cc1 [Compound 1093]		66%	
COC(=O)c1cc2cc(OCc3ccccc3)ccc2n1CCCCCCCOC(=O)c1ccc(CN(C)C)cc1 [Compound 1096]		140%	IC50 [2]: 68.9 µM
COC(=O)c1cc2cc(OCc3ccccc3)ccc2n1CCCCCCCOC(=O)c1ccc(C[N+](C)(C)C)cc1 [Compound 1097]	63.7 µM		inhibition at 200 µM: 98%
C[N+](C)(C)c1ccc(CC(=O)OCCCCCCCCn2ccc3cc(NC(=O)c4ccccc4)ccc32)cc1 [Compound 1104]	61 µM		
C[n+]1cccc(C(=O)OCCCCCCCCOc2ccc([N+](=O)[O-])cc2)c1 [compound 1053]		72%	
C[n+]1cccc(C(=O)OCCCCCCCCOc2ccccc2[N+](=O)[O-])c1 [compound 1055]		46%	
CC(=O)c1ccccc1OCCCCCCCCOC(=O)c1ccc[n+](C)c1 [compound 1056]		18%	
COc1cccc(OCCCCCCCCOC(=O)c2ccc[n+](C)c2)c1 [compound 1057]		59%	
CC(=O)c1ccc(OCCCCCCCCOC(=O)c2ccc[n+](C)c2)cc1 [compound 1058]		18%	
C[n+]1cccc(C(=O)OCCCCCCCCOc2cccc(OC(=O)c3ccccc3)c2)c1 [compound 1059]		85%	
C[n+]1cccc(C(=O)OCCCCCCCCOc2ccccc2C(N)=O)c1 [compound 1060]		19%	
CC(=O)C=Cc1ccc(OCCCCCCCCOC(=O)c2ccc[n+](C)c2)cc1 [compound 1061]		61%	
C[n+]1cccc(C(=O)OCCCCCCCCOc2ccc(OC(=O)c3ccccc3)cc2)c1 [compound 1062]		18%	
C[n+]1cccc(C(=O)OCCCCCCCCOc2ccc(C=CC(=O)c3ccccc3)cc2)c1 [compound 1063]		32%	
C[n+]1cccc(C(=O)OCCCOc2ccccc2C=CC(=O)c2ccccc2)c1 [compound 1066]			inhibition at 200 µM: 70%
CC(=O)c1cccc(OCCCCCCCCOC(=O)c2ccc[n+](C)c2)c1 [compound 1069]		36%	
C[n+]1cccc(C(=O)OCCCCCCCCOc2ccc(N3C(=O)c4ccccc4C3=O)cc2)c1 [compound 1071]		55%	
COC(=O)c1cc2cc(OCc3ccccc3)ccc2n1CCCCCCCOC(=O)Cc1ccc([N+](C)(C)C)cc1 [compound 1105]		167%	
C[n+]1cccc(C(=O)OCCCCCCCCOc2ccccc2C(=O)Nc2ccccc2)c1 [compound 3054]		86%	
